How the values were obtained:
[1] = Solubility of baclofen in solutions comprising sulfate or phosphate; assay type: physicochemical
Experimental: A concentration of 8.8 mg/mL sodium chloride is considered isotonic and therefore desirable as being physiologically acceptable.

[2] = limited evaluation, literature; cited from earlier work
[3] = reported in the literature; cited from earlier work

| solubility of baclofen ([1]; in solutions comprising sulfate or phosphate) | concentration of baclofen that can be dissolved ([1]; solutions containing phosphate, sulfate, potassium, sodium, or magnesium, such as greater than 3, 4, 5 or 6 mg/mL) | SMILES | biological activity of the metabolite [2] | dominant metabolite of baclofen, reported share [3] [%] |
| --- | --- | --- | --- | --- |
| increased | greater than 2 mg/mL | NCC(CC(=O)O)c1ccc(Cl)cc1 (stereo not shown) [baclofen, 4-amino-3-(4-chlorophenyl)butanoic acid] | – | – |
| – | – | O=C(O)CC(CO)c1ccc(Cl)cc1 (stereo not shown) [M1, 3-(4-chlorophenyl)-4-hydroxybutyric acid] | inactive | 15 |

From patent US12011502B2, “Compositions and methods of administering baclofen” (AMNEAL PHARMACEUTICALS LLC, priority 2021, dated 2024)
